Data: ChEMBL document CHEMBL5550186, “Exploring the Potential of Cyclic Peptidyl Antitumor Agents Derived from Natural Macrocyclic Peptide Phakellistatin 13” (J Med Chem, 2024)
The source made the active and inactive calls. The rule behind the calls is not given here.

Assays:
HepG2 [1] = experiment: Induction of cell cycle arrest in human HepG2 cells assessed as accumulation of cells at G2/M phase at 10 uM incubated for 24 hrs by PI staining based flow cytometry analysis (reference value: 6.38%); type: functional
HepG2 [2] = experiment: Antiproliferative activity against human HepG2 cells incubated for 48 hrs by MTT assay; type: functional, cell-based; settings: HepG2, 48 h
HepG2 [3] = experiment: Induction of cell cycle arrest in human HepG2 cells assessed as assessed as accumulation of cells at G2/M phase at 10 uM incubated for 12 hrs by PI staining based flow cytometry analysis (reference value: 6.38%); type: functional
HepG2 [4] = experiment: Induction of morphological changes in human HepG2 cells assessed as decrease in cell adhesion at 40 uM measured after 12 to 24 hrs by fluorescence inverted microscopic analysis; type: functional, cell-based; settings: time 12-24 hrs
Cell membrane [5] = experiment: Induction of mitochondrial membrane potential loss in human HepG2 cells assessed as decrease in fluorescence at 10 uM measured after 24 hrs by Rhodamine 123 staining based flow cytometry (reference value: 66.8%); type: cell membranes; design: scale not given: the % may be the effect or the level left
HepG2 [6] = experiment: Induction of apoptosis in human HepG2 cells assessed as viable cells at 20 uM incubated for 48 hrs by annexin V-FITC/PI staining based flow cytometry analysis (reference value: 99.3%); type: functional; settings: read-out: Activity
[7] = Toxicity in Balb/c mouse assessed as effect on heart at 6 mg/kg, iv measured after 14 days by H and E staining based analysis; type: organism-based; settings: in vivo, 336 h, time 14 day
HepG2 [8] = experiment: Induction of cell cycle arrest in human HepG2 cells assessed as accumulation of cells at >G2/M phase at 10 uM incubated for 48 hrs by PI staining based flow cytometry analysis (reference value: 28.0%); type: functional
HeLa = experiment: Antiproliferative activity against human HeLa cells incubated for 48 hrs by MTT assay; type: functional, cell-based
HepG2 [9] = experiment: Upregulation of p53 level in human HepG2 cells at 5 to 20 uM measured after 48 hrs by Western blot analysis; type: functional, cell-based; settings: dose 5-20 µM
Cell membrane [10] = experiment: Induction of mitochondrial membrane potential loss in human HepG2 cells assessed as decrease in fluorescence at 20 uM measured after 48 hrs by Rhodamine 123 staining based flow cytometry (reference value: 66.8%); type: cell membranes; design: scale not given: the % may be the effect or the level left
4T1 = experiment: Antiproliferative activity against mouse 4T1 cells incubated for 48 hrs by MTT assay; type: functional, cell-based; settings: 4T1, 48 h
HepG2 [11] = experiment: Induction of cell cycle arrest in human HepG2 cells assessed as accumulation of cells at <2N phase at 20 uM incubated for 48 hrs by PI staining based flow cytometry analysis (reference value: 0.027%); type: functional
HepG2 [12] = experiment: Induction of cell cycle arrest in human HepG2 cells assessed as accumulation of cells at >G2/M phase at 5 uM incubated for 48 hrs by PI staining based flow cytometry analysis (reference value: 28.0%); type: functional
[13] = Toxicity in Balb/c mouse assessed as effect on liver at 6 mg/kg, iv measured after 14 days by H and E staining based analysis; type: organism-based; settings: in vivo, 336 h, time 14 day
[14] = Upregulation of DDIT3 expression level in human HepG2 cells assessed as fold change by KEGG enrichment analysis; type: functional
[15] = Antiproliferative activity against mouse L929 cells incubated for 48 hrs by MTT assay; type: toxicity, cell-based
HepG2 [16] = experiment: Induction of apoptosis in human HepG2 cells assessed as early apoptotic cells at 5 uM incubated for 48 hrs by annexin V-FITC/PI staining based flow cytometry analysis (reference value: 0.50%); type: functional
HepG2 [17] = experiment: Induction of cell cycle arrest in human HepG2 cells assessed as accumulation of cells at 2N phase at 5 uM incubated for 48 hrs by PI staining based flow cytometry analysis (reference value: 26.0%); type: functional
HepG2 [18] = experiment: Downregulation of MDM2 level in human HepG2 cells at 5 to 20 uM measured after 48 hrs by Western blot analysis; type: functional, cell-based; settings: dose 5-20 µM
HepG2 [19] = experiment: Induction of cell cycle arrest in human HepG2 cells assessed as accumulation of cells at 2N phase at 20 uM incubated for 48 hrs by PI staining based flow cytometry analysis (reference value: 26.0%); type: functional
[20] = Upregulation of FGF21 expression level in human HepG2 cells assessed as fold change by KEGG enrichment analysis; type: functional
HepG2 [21] = experiment: Induction of cell cycle arrest in human HepG2 cells assessed as assessed as accumulation of cells at S phase at 10 uM incubated for 12 hrs by PI staining based flow cytometry analysis (reference value: 39.6%); type: functional
[22] = Upregulation of GADD45A expression level in human HepG2 cells assessed as fold change by KEGG enrichment analysis; type: functional
[23] = Toxicity in Balb/c mouse assessed as effect on body weight at 6 mg/kg, iv measured every two days for 14 days; type: organism-based; settings: in vivo, 336 h, time 14 day
[24] = Upregulation of SYVN1 expression level in human HepG2 cells assessed as fold change by KEGG enrichment analysis; type: functional
[25] = Upregulation of NGFR expression level in human HepG2 cells assessed as fold change by KEGG enrichment analysis; type: functional
HepG2 [26] = experiment: Induction of cell cycle arrest in human HepG2 cells assessed as accumulation of cells at <2N phase at 10 uM incubated for 12 hrs by PI staining based flow cytometry analysis (reference value: 0.027%); type: functional
HepG2 [27] = experiment: Induction of apoptosis in human HepG2 cells assessed as increase in number of apoptotic cells at 5 to 10 uM measured after 24 hrs by annexin V-mCherry staining based fluorescence microscopic analysis; type: functional, cell-based; settings: dose 5-10 µM
HepG2 [28] = experiment: Induction of autophagy in human HepG2 cells assessed as increase in formation of autophagosomes at 5 to 10 uM incubated for 24 hrs by acridine orange staining based laser confocal microscopic analysis; type: functional, cell-based; settings: dose 5-10 µM
HepG2 [29] = experiment: Induction of apoptosis in human HepG2 cells assessed as increase in caspase 3 activity at 5 to 10 uM measured after 24 hrs by green-nuc staining based fluorescence microscopic analysis; type: functional, cell-based; settings: dose 5-10 µM
[30] = Toxicity in Balb/c mouse assessed as effect on tumor at 6 mg/kg, iv measured after 14 days by H and E staining based analysis; type: organism-based; settings: in vivo, 336 h, time 14 day
[31] = Upregulation of SESN2 expression level in human HepG2 cells assessed as fold change by KEGG enrichment analysis; type: functional
[32] = Downregulation of RSPO3 expression level in human HepG2 cells assessed as fold change by KEGG enrichment analysis; type: functional
HepG2 [33] = experiment: Induction of cell cycle arrest in human HepG2 cells assessed as accumulation of cells at 2N phase at 10 uM incubated for 24 hrs by PI staining based flow cytometry analysis (reference value: 26.0%); type: functional
HepG2 [34] = experiment: Induction of morphological changes in human HepG2 cells assessed as deterioration of cell membrane integrity at 40 uM measured after 12 to 24 hrs by fluorescence inverted microscopic analysis; type: functional, cell-based; settings: time 12-24 hrs
[35] = […] of CCND1 expression level in human HepG2 cells assessed as fold change by KEGG enrichment analysis; type: functional
[36] = Upregulation of ATF4 expression level in human HepG2 cells assessed as fold change by KEGG enrichment analysis; type: functional

IC50 (HepG2 [2]): 11.6 µM | Activity (Cell membrane [5]): 45.4% | IC50 (HeLa): 16.9 µM | Activity (Cell membrane [10]): 18.4% | IC50 (4T1): 38.5 µM
SMILES: CC(C)C[C@H]1NC(=O)[C@H]([C@@H](C)OCc2ccccc2)NC(=O)[C@H]2CCCN2C(=O)CN2C(=O)c3ccccc3[C@@]2(O)CN(Cc2ccccc2)C(=O)[C@H](Cc2ccccc2)NC(=O)[C@H]2CCCN2C(=O)[C@H](Cc2c[nH]c3ccccc23)NC1=O
Activity (HepG2 [1]): 13% | Activity (HepG2 [3]): 12.4% | Activity (HepG2 [4]): Active | viability at 20 µM (HepG2 [6]): 52% | Activity [7]: Non-Toxic | Activity (HepG2 [8]): 0% | Activity (HepG2 [9]): Active | Activity (HepG2 [11]): 28.1% | Activity (HepG2 [12]): 2.76% | Activity [13]: Non-Toxic | fold change (FC) [14]: 1.968 | IC50 at 48 h [15]: > 100 µM | Activity (HepG2 [16]): 16.8% | Activity (HepG2 [17]): 28.7% | Activity (HepG2 [18]): Active | Activity (HepG2 [19]): 21.9% | fold change (FC) [20]: 9.022 | Activity (HepG2 [21]): 18.9% | fold change (FC) [22]: 1.519 | Activity [23]: Non-Toxic | fold change (FC) [24]: 1.048 | fold change (FC) [25]: 1.584 | Activity (HepG2 [26]): 36.2% | Activity (HepG2 [27]): Active | Activity (HepG2 [28]): Active | Activity (HepG2 [29]): Active | Activity [30]: Non-Toxic | fold change (FC) [31]: 2.86 | fold change (FC) [32]: -1.578 | Activity (HepG2 [33]): 23.3% | Activity (HepG2 [34]): Active | fold change (FC) [35]: -1.18 | fold change (FC) [36]: 1.43
